Experiment: Safety evaluation in the drug-drug interaction study (adverse events, clinical laboratory, vital signs, physical examination)
Type: in vivo, human
Details: omeprazole 40 mg with ethyl eicosapentaenoate 4 g/day, healthy subjects
From the text: Safety evaluations consisted of monitoring adverse events (AEs), clinical laboratory measurements (chemistry, hematology, and urinalysis), vital signs (systolic and diastolic blood pressure, heart rate, respiratory rate and oral body temperature), and physical examination findings.

Row | Compound | Premature discontinuation due to an adverse event | Safety and tolerability of concomitant administration | Serious adverse events
1 | CC/C=C\C/C=C\C/C=C\C/C=C\C/C=C\CCCC(=O)OCC [ethyl eicosapentaenoate, all-cis eicosa-5,8,11,14,17-pentaenoic acid ethyl ester] | no subjects prematurely discontinued | safe and well-tolerated | No serious adverse events
2 | COc1ccc2[nH]c([S+]([O-])Cc3ncc(C)c(OC)c3C)nc2c1 (stereo not drawn) [Omeprazole, omeprazole] | no subjects prematurely discontinued | safe and well-tolerated | No serious adverse events

Source: patent US20150073050A1 (Amarin Pharmaceuticals Ireland Limited, priority 2013, published 2015)
